Read-outs that look alike come from different tables or passages of the source.

A short description of data set [1]: Octanol/water partition coefficient (Kow), shared-headspace method. The data set is classed as physicochemical. The note with it: 25 °C; shared-headspace method (SH). As for the experimental part:
Kow was measured for nine PFAS (Table 2) to supplement the data set for descriptor determination. The nine PFAS were selected based on measurement feasibility and structural diversity. The shared-headspace or batch partition method was used as described previously.[5] Details of the methods are given in SI-1.

A short description of data set [2]: PP-LFER solute descriptor determination from GC retention and partition coefficient data. The data set is classed as physicochemical. The note with it: for Solute descriptor S (dipolarity/polarizability parameter): final adjusted value, shared within a PFAS group. The source says: The GC columns used were, from low to high polarity, HP-5ms Ultra Inert (poly[5% phenyl/95% methyl]siloxane equivalent; Agilent Technologies, Santa Clara, CA), DB-200 (poly[35% trifluoropropyl/65% methyl]siloxane; Agilent Technologies), DB-225ms (poly[50% cyanopropylphenyl/50% methyl]siloxane equivalent; Agilent Technologies), and SolGel-WAX (polyethylene glycol; Trajan, Ringwood, Australia). Column dimensions were all 30 m × 0.25 mm i.d. with a coating thickness of 0.25 μm.
The method for GC retention time measurements follows that of a previous study.[18] Briefly, a 7890A/5975C GC/MS instrument (Agilent Technologies) equipped with an MPS2 autosampler and CIS4 injector (Gerstel, Mülheim an der Ruhr, Germany) was used for all measurements. For each column, isothermal retention times were measured at four temperatures in the range of 30–120 °C to cover all target compounds. The temperature at the injector and transfer line was fixed at 120 °C. The carrier gas was He at a flow rate of 1.2 mL/min. Compounds were introduced into the GC by injecting either headspace (100–250 μL) above the pure compound or solution in acetone (1 μL). Split injections were performed with a split ratio of 20–250. Column dead time (t0) was determined by injecting air and measuring Ar (m/z 40). From the measured retention time (t), the retention factor (k) was calculated as k = (t–t0)/t0. Measurements with t < t0 + 0.1 min were considered too short and discarded. For each column and temperature, k values were obtained for 29–52 PFAS and 29–48 reference compounds.
The standard procedure for solute descriptor determination was as follows. First, the system parameters in eq 1 were calibrated for each column (or partition system) and temperature by MLR using log k (or log K) data and solute descriptors for reference compounds. Dimethylformamide, 1-pentylamine, dimethylsulfoxide, and dodecamethylcyclohexasiloxane (D6) were removed from the log k data sets, because they frequently appeared as outliers (>3 SD) of the PP-LFER model fit. Reference data sets for hexadecane/water partition coefficients (KHxd/w),[21]Kow,[22] and octanol/air partition coefficients (Koa)[23] were taken from the cited references and amended with data for organosilicon compounds.[24],[25] Similar to PFAS, organosilicon compounds have weak van der Waals interaction properties[9] and it may be beneficial to include them in reference data sets. The solute descriptors for PFAS were then back-calculated by using the calibrated PP-LFER equations. Of the five descriptors, V can be calculated from the molecular structure[26] (note: the fragment value for F from Goss et al.[11] was used), and L was available for the PFAS studied.[18] Thus, the left side of eq 2 was known, and MLR was performed to obtain S, A, and B on the right side. [drawing 2] 2 To determine the three descriptors, a minimum of three k and K data are required for a given PFAS compound. The data used here were: k measured for 60 PFAS in this study, KHxd/w for 21 PFAS,[5]Kow for 12 PFAS (see the Results and Discussion section), and Koa for 3 PFAS.[11]
Key to the accurate determination of the polar interaction descriptors is the availability of K data for partition systems with water as a partition phase because water is a strong H-bond donor and acceptor phase and thus the corresponding K values are sensitive to the H-bonding properties of the solute.[27] In particular, at least one solvent/water or air/water partition coefficient is required to determine B because there is no commonly used GC phase that is a significant H-bond donor. In the data set, KHxd/w is sensitive to both A and B and Kow is sensitive to B. However, KHxd/w and Kow data are not available for all PFAS. To increase the number of PFAS for which descriptors can be determined, the following assumptions were made. […]

[3] abbreviates: 25 °C, updated in the iterative calculation.

For the compound `OCC(F)(F)C(F)(F)C(F)(F)C(F)(F)C(F)(F)C(F)(F)C(F)(F)F` [7:1 FTOH, 1H,1H-Perfluorooctan-1-ol], the “Measured Log Kow, Mean ± SD” value in data set [1] came to 5.01 ± 0.02. In data set [2] (setting [3]), the “Solute descriptor L (logarithmic hexadecane/air partition coefficient, KHxd/air)” value was 2.715. For the same compound, in data set [2], the “Solute descriptor S (dipolarity/polarizability parameter)” value is 0.30.
`FC(F)(F)C(F)(F)C(F)(F)C(F)(F)C(F)(F)C(F)(F)CCI` [6:2 FTI, 1H,1H,2H,2H-Perfluorooctyl iodide]: in data set [2] (setting [3]), the “Solute descriptor L (logarithmic hexadecane/air partition coefficient, KHxd/air)” value is 3.892. The “Solute descriptor S (dipolarity/polarizability parameter)” value in data set [2] is 0.32.
As for `OCCC(F)(F)C(F)(F)C(F)(F)C(F)(F)C(F)(F)C(F)(F)C(F)(F)C(F)(F)C(F)(F)C(F)(F)F` [10:2 FTOH, 1H,1H,2H,2H-Perfluorododecan-1-ol], in data set [2], the “Solute descriptor L (logarithmic hexadecane/air partition coefficient, KHxd/air)” value turned out to be 4.117 and the “Solute descriptor S (dipolarity/polarizability parameter)” value is reported as 0.35.
The like results for `C=CC(F)(F)C(F)(F)C(F)(F)C(F)(F)C(F)(F)C(F)(F)C(F)(F)C(F)(F)C(F)(F)C(F)(F)F` [10:2 FTO, 1H,1H,2H-Perfluoro-1-dodecene] were, in that order, 3.031 and 0.11.
On to `FC(F)(F)C(F)(F)C(F)(F)C(F)(F)C(F)(F)C(F)(F)C(F)(F)C(F)(F)I` [PFOI, Perfluorooctyl iodide], for which the “Solute descriptor L (logarithmic hexadecane/air partition coefficient, KHxd/air)” value in data set [2] (setting [3]) is 3.068. The “Solute descriptor S (dipolarity/polarizability parameter)” value in data set [2] came out at 0.07.
As to `FC(OC(F)(F)C(F)(OC(F)(F)C(F)(OC(F)(F)C(F)(OC(F)(F)C(F)(OC(F)(F)C(F)(F)C(F)(F)F)C(F)(F)F)C(F)(F)F)C(F)(F)F)C(F)(F)F)C(F)(F)F` (stereo not shown) [FE-E5, 1,1,1,2,4,4,5,7,7,8,10,10,11,13,13,14,16,16,17 ,17,18,18,18-Tricosafluoro-5,8,11,14-tetrakis(trifluoromethyl)-3,6,9,12,15-pentaoxaoctadecane], in data set [2], the “Solute descriptor L (logarithmic hexadecane/air partition coefficient, KHxd/air)” value is 3.128 and the “Solute descriptor S (dipolarity/polarizability parameter)” value is given as -0.81.
For `C=CC(=O)OCCC(F)(F)C(F)(F)C(F)(F)C(F)(F)C(F)(F)C(F)(F)C(F)(F)C(F)(F)C(F)(F)C(F)(F)F` [10:2 FTAC, 1H,1H,2H,2H-Perfluorododecyl acrylate] the same measures were 5.221 and 0.54.
The like results for `CN(CCO)S(=O)(=O)C(F)(F)C(F)(F)C(F)(F)C(F)(F)C(F)(F)C(F)(F)C(F)(F)C(F)(F)F` [MeFOSE, N-Methylperfluorooctanesulfonamidoethanol] were, in that order, 5.909 and 1.00.
Consider `FC(F)(F)C(F)(I)OC(F)(F)C(F)(F)C(F)(F)F` (stereo not shown) [FE-E1-I, 1-(Heptafluoropropoxy)-1,2,2,2-tetrafluoro-1-iodoethane], for which the “Solute descriptor L (logarithmic hexadecane/air partition coefficient, KHxd/air)” value in data set [2] (setting [3]) is given as 1.937. Also, the “Solute descriptor S (dipolarity/polarizability parameter)” value in data set [2] is on record as 0.06.
The like results for `C=CC(F)(F)C(F)(F)C(F)(F)C(F)(F)C(F)(F)C(F)(F)F` [6:2 FTO, 1H,1H,2H-Perfluoro-1-octene] were, in that order, 2.022 and 0.11.
`C=Cc1ccc(C(F)(F)C(F)(F)C(F)(F)C(F)(F)C(F)(F)C(F)(F)C(F)(F)C(F)(F)F)cc1` [PFOSt, 4-(Perfluorooct-1-yl)styrene]: in data set [2], the “Solute descriptor L (logarithmic hexadecane/air partition coefficient, KHxd/air)” value was 5.645 and the “Solute descriptor S (dipolarity/polarizability parameter)” value came out at 0.32.
On to `OCc1ccc(CCC(F)(F)C(F)(F)C(F)(F)C(F)(F)C(F)(F)C(F)(F)F)cc1` [6:2 FTBnOH, 4-(1H,1H,2H,2H-Perfluorooctyl)benzyl alcohol], for which the “Solute descriptor L (logarithmic hexadecane/air partition coefficient, KHxd/air)” value in data set [2] (setting [3]) is reported as 6.656. Moreover, the “Solute descriptor S (dipolarity/polarizability parameter)” value in data set [2] turned out to be 0.75.
For `CCNS(=O)(=O)C(F)(F)C(F)(F)C(F)(F)C(F)(F)C(F)(F)C(F)(F)F` [EtFHxSA, N-Ethylperfluorohexanesulfonamide] the same measures were 4.400 and 0.88.
For the compound `FC(F)(F)C(F)(F)C(F)(F)C(F)(F)I` [PFBI, Perfluorobutyl iodide], in data set [2] (setting [3]), the “Solute descriptor L (logarithmic hexadecane/air partition coefficient, KHxd/air)” value was 1.939. In addition, in data set [2], the “Solute descriptor S (dipolarity/polarizability parameter)” value was determined as 0.07.
For `O=S(=O)(F)C(F)(F)C(F)(F)C(F)(F)C(F)(F)F` [PFBSF, Perfluorobutanesulfonyl fluoride] the same measures were 1.278 and 0.16.
For the compound `C=C(C)C(=O)OCCC(F)(F)C(F)(F)C(F)(F)C(F)(F)F` [4:2 FTMAC, 1H,1H,2H,2H-Perfluorohexyl methacrylate], the “Solute descriptor L (logarithmic hexadecane/air partition coefficient, KHxd/air)” value in data set [2] (setting [3]) was 3.990. For the same compound, the “Solute descriptor S (dipolarity/polarizability parameter)” value in data set [2] is given as 0.53.
As to `FC(F)(F)C(F)(F)C(F)(F)C(F)(F)C(F)(F)C(F)(F)C(F)(F)C(F)(F)C(F)(F)C(F)(F)I` [PFDI, Perfluorodecyl iodide], in data set [2], the “Solute descriptor L (logarithmic hexadecane/air partition coefficient, KHxd/air)” value came to 3.623 and the “Solute descriptor S (dipolarity/polarizability parameter)” value stood at 0.07.
For `CCNS(=O)(=O)C(F)(F)C(F)(F)C(F)(F)C(F)(F)C(F)(F)C(F)(F)C(F)(F)C(F)(F)F` [EtFOSA, N-Ethylperfluorooctanesulfonamide] the same measures were 4.967 and 0.88.
As to `CCN(CCO)S(=O)(=O)C(F)(F)C(F)(F)C(F)(F)C(F)(F)C(F)(F)C(F)(F)F` [EtFHxSE, N-Ethylperfluorohexanesulfonamidoethanol], the “Solute descriptor L (logarithmic hexadecane/air partition coefficient, KHxd/air)” value in data set [2] (setting [3]) is on record as 5.685. For the same compound, the “Solute descriptor S (dipolarity/polarizability parameter)” value in data set [2] was 1.00.
With `CCN(CCO)S(=O)(=O)C(F)(F)C(F)(F)C(F)(F)C(F)(F)C(F)(F)C(F)(F)C(F)(F)C(F)(F)F` [EtFOSE, N-Ethylperfluorooctanesulfonamidoethanol], in data set [2], the “Solute descriptor L (logarithmic hexadecane/air partition coefficient, KHxd/air)” value is on record as 6.253 and the “Solute descriptor S (dipolarity/polarizability parameter)” value stood at 1.00.
On to `C=CC(F)(F)C(F)(F)C(F)(F)C(F)(F)C(F)(F)C(F)(F)C(F)(F)C(F)(F)F` [8:2 FTO, 1H,1H,2H-Perfluoro-1-decene], for which, in data set [2] (setting [3]), the “Solute descriptor L (logarithmic hexadecane/air partition coefficient, KHxd/air)” value is 2.504. Also, the “Solute descriptor S (dipolarity/polarizability parameter)” value in data set [2] is on record as 0.11.
Consider `CNS(=O)(=O)C(F)(F)C(F)(F)C(F)(F)C(F)(F)C(F)(F)C(F)(F)C(F)(F)C(F)(F)F` [MeFOSA, N-Methylperfluorooctanesulfonamide], for which the “Solute descriptor L (logarithmic hexadecane/air partition coefficient, KHxd/air)” value in data set [2] (setting [3]) is 4.703. For the same compound, in data set [2], the “Solute descriptor S (dipolarity/polarizability parameter)” value turned out to be 0.88.
In the case of `C=C(C)C(=O)OCCC(F)(F)C(F)(F)C(F)(F)C(F)(F)C(F)(F)C(F)(F)C(F)(F)C(F)(F)C(F)(F)C(F)(F)F` [10:2 FTMAC, 1H,1H,2H,2H-Perfluorododecyl methacrylate], in data set [2], the “Solute descriptor L (logarithmic hexadecane/air partition coefficient, KHxd/air)” value is listed as 5.671 and the “Solute descriptor S (dipolarity/polarizability parameter)” value amounted to 0.53.
For the compound `C=CC(F)(F)C(F)(F)C(F)(F)C(F)(F)F` [4:2 FTO, 1H,1H,2H-Perfluoro-1-hexene], the “Solute descriptor L (logarithmic hexadecane/air partition coefficient, KHxd/air)” value in data set [2] (setting [3]) is recorded as 1.451. The “Solute descriptor S (dipolarity/polarizability parameter)” value in data set [2] was 0.11.

These data come from article PMC10653080, “Intermolecular Interactions, Solute Descriptors, and Partition Properties of Neutral Per- and Polyfluoroalkyl Substances (PFAS)” (Environmental Science & Technology, 2023).
